One assay concerns the target T1, FLT3 kinase (Homo sapiens, UniProt P36888).
T1 construct: made in house; host or cells: T7 phage display or HEK-293 cells
T1 sequence (P36888 27-993): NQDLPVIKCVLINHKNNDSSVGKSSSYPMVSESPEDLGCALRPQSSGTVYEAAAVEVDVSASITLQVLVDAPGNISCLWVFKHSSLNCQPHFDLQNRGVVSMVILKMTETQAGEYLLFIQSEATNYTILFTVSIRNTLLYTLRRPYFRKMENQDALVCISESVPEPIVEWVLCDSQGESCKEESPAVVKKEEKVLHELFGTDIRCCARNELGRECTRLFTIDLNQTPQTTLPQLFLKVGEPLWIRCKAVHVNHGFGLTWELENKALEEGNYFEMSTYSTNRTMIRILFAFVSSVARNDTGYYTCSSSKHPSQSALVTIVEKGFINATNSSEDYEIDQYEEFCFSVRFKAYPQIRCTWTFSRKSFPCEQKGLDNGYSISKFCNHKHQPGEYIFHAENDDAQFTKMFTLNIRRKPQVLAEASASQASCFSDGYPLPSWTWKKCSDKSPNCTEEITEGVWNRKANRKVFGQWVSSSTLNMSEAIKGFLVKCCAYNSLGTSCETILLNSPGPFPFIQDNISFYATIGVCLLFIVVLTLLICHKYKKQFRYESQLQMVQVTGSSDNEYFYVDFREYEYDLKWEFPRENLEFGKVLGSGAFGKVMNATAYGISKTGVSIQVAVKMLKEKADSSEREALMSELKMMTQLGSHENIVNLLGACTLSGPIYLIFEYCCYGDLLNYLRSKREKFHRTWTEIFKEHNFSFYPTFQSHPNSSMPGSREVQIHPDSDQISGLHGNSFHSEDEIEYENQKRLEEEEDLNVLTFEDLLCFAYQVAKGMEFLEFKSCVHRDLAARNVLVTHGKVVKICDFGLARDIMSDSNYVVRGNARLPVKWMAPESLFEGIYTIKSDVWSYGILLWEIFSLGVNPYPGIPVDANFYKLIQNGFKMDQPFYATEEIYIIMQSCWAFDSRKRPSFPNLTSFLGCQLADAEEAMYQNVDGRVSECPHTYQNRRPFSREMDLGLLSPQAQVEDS
In words: Competition binding assay, FLT3 Kd. The method, boiled down:
(§1)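 Steps: biotinylated ligand loaded on streptavidin magnetic beads 30 min; beads blocked with biotin; kinase, beads and compound combined 1 hour at room temperature; beads washed, eluted 30 min with 0.5 μM free ligand; eluted kinase measured by quantitative PCR. Kd derived from eleven-point threefold dilutions.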

A further assay addresses T2, KIT kinase (Homo sapiens, UniProt P10721).
T2 construct: made in house; host or cells: T7 phage display or HEK-293 cells
In words: Competition binding assay, KIT Kd. The method, boiled down: as §1

The next assay addresses T3, CSF-1R kinase (Homo sapiens, UniProt P07333).
T3 construct: made in house; host or cells: T7 phage display or HEK-293 cells
In words: Competition binding assay, CSF-1R Kd. In a few lines:
as §1

The subject of the next assay is MV4-11 cells. As to the kind of experiment: MV4-11 cell proliferation assay (Alamar Blue). Format: cell-based. The conditions noted are these: Homo sapiens, MV4-11, 72 h, 3 days incubation. In a few lines: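 Viability readout: Alamar Blue fluorescence, ex 560/em 590 nm, 3 h after reagent addition, after 3-day exposure of 64,000 MV4-11 cells per well to a 9-point half-log compound series in 0.5% FBS Iscove's. IC50 from duplicate averages, as 50% proliferation inhibition relative to negative control.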

Assay [1] deals with kinase panel containing either 359 or 386 distinct kinases. As to the kind of experiment: Selectivity score S10 from competition binding against a panel of kinases. The conditions noted are these: compounds at 10 μM; panel of 386 distinct kinases. In a few lines: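 Compounds were tested at 10 μM in competition binding against T7 phage-fused or HEK-293-expressed DNA-tagged kinases with immobilized affinity ligands, 1 h at room temperature. Bound kinase was quantified by qPCR as percent of DMSO control; S10 is the fraction of distinct kinases (mutants excluded) with POC below 10.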

T2 sequence (P10721 26-976): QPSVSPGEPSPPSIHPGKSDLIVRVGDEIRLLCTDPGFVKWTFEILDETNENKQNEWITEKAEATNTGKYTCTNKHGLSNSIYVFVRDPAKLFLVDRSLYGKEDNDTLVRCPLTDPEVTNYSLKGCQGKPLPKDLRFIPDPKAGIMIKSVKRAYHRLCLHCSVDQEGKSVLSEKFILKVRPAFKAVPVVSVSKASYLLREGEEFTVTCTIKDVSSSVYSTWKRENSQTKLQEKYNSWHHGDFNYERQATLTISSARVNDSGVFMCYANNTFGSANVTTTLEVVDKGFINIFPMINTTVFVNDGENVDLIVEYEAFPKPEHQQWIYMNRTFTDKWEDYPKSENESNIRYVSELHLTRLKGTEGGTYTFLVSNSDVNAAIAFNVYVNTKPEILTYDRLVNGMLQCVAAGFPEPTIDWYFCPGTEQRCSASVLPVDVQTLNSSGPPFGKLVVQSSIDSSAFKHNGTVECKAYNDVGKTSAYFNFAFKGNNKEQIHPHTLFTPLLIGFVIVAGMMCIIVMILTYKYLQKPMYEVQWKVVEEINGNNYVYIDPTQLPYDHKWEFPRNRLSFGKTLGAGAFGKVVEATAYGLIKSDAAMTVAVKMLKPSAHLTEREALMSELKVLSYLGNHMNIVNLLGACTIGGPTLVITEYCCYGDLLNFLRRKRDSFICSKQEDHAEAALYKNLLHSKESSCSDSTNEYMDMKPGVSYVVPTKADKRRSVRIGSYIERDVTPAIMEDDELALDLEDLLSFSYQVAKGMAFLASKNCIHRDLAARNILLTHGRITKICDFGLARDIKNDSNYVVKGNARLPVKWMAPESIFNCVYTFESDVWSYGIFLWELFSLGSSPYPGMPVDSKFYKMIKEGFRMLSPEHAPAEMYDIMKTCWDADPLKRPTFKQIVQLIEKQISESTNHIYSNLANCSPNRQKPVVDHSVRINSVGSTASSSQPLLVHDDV
T3 sequence (P07333 20-972): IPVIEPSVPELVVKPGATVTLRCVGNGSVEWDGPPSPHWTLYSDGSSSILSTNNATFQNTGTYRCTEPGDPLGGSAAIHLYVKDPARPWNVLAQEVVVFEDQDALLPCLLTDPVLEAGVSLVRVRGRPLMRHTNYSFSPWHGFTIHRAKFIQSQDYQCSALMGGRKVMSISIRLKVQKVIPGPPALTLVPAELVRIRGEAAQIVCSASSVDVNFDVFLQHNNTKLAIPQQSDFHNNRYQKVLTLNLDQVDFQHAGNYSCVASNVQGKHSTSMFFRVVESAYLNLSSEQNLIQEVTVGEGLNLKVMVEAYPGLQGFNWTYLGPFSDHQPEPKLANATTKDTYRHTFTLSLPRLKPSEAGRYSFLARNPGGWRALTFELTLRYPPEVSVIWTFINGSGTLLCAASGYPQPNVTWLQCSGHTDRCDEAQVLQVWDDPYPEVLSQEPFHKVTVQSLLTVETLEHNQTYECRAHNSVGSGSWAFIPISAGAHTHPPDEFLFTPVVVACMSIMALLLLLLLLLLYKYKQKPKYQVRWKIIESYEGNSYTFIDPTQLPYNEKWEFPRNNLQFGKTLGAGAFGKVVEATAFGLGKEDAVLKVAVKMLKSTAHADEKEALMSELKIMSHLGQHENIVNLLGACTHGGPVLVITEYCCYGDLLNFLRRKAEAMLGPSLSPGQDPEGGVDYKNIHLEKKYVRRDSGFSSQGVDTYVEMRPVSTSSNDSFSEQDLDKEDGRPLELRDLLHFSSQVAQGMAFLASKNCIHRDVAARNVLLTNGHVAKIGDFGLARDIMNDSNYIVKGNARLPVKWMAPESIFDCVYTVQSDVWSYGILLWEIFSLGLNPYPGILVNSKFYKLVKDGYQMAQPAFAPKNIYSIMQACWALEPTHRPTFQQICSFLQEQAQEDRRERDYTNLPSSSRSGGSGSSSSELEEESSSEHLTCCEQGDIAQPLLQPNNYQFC

As a reminder, the Kd is the concentration at which binding is half-saturated. A high value points to weaker binding. As a reminder, the IC50 is the concentration at which inhibition is half-maximal. A lower IC50 goes with greater potency. For `CS(=O)(=O)O.Nc1ccc(-c2ccc(CC(=O)Nn3cc(C(F)(F)F)cn3)cc2)cn1` [Example 126, 5-(4-(2-oxo-2-(4-(trifluoromethyl)-1H-pyrazol-1-ylamino)ethyl)phenyl)pyridin-2-aminium methanesulfonate], the dissociation constant Kd is at most 0.001 µM on FLT3 kinase, 0.001 to 0.01 µM on KIT kinase and 0.01 to 0.1 µM on CSF-1R kinase. In addition, the half-maximal inhibitory concentration (IC50) with MV4-11 cells fell in the range of 0.01 to 0.1 µM. Besides, the “Kinase specificty: S(10)-386 panel” value in assay [1] was “A (A≦0.1)”.

Regarding `CC1(c2cc(NC(=O)Cc3ccc(-c4cnc(N)c(Cl)c4)cc3)no2)COC1.CS(=O)(=O)O` [Example 128, 3-chloro-5-(4-(2-((5-(3-methyloxetan-3-yl)isoxazol-3-yl)amino)-2-oxoethyl)phenyl)pyridin-2-aminium methanesulfonate], the results for the dissociation constant (Kd) on FLT3 kinase, at KIT kinase and at CSF-1R kinase were at most 0.001 µM, 0.001 to 0.01 µM and at most 0.01 µM, respectively. Besides, the IC50 with MV4-11 cells lay in the range of 0.001 to 0.01 µM. Further, the “Kinase specificty: S(10)-386 panel” value in assay [1] is on record as “B (0.1<B≦0.2 nM)”.

As to `COc1nc(N)ccc1-c1ccc(CC(=O)Nc2cc(C(C)(C)C)on2)cc1.CS(=O)(=O)O` [Example 131, 5-(4-(2-(5-tert-butylisoxazol-3-ylamino)-2-oxoethyl)phenyl)-6-methoxypyridin-2-aminium methanesulfonate], the Kd at FLT3 kinase was 0.001 to 0.01 µM; at KIT kinase, 0.01 to 0.1 µM; on CSF-1R kinase, over 0.5 µM. In the assay with MV4-11 cells, this molecule gave a half-maximal inhibitory concentration (IC50) of 0.1 to 0.5 µM. For the same molecule, in assay [1], the “Kinase specificty: S(10)-386 panel” value is on record as “A (A≦0.1)”.

In the case of `CC(C)(C)c1cc(NC(=O)Cc2ccc(-c3ccc(N)nc3Cl)cc2)no1.CS(=O)(=O)O` [Example 132, 5-(4-(2-(5-tert-butylisoxazol-3-ylamino)-2-oxoethyl)phenyl)-6-chloropyridin-2-aminium methanesulfonate], the Kd at FLT3 kinase was at most 0.001 µM; at KIT kinase it was 0.001 to 0.01 µM; at CSF-1R kinase it was at most 0.01 µM. In the assay on MV4-11 cells, this molecule had a half-maximal inhibitory concentration (IC50) of 0.001 to 0.01 µM. Also, the “Kinase specificty: S(10)-386 panel” value in assay [1] was “A (A≦0.1)”.

Regarding `CS(=O)(=O)O.Nc1ncc(-c2ccc(CC(=O)Nc3cc(C4(C(F)(F)F)CC4)on3)cc2)cc1Cl` [Example 133, 3-chloro-5-(4-(2-oxo-2-(5-(1-(trifluoromethyl)cyclopropyl)isoxazol-3-ylamino)ethyl)phenyl)pyridin-2-aminium methanesulfonate], the dissociation constant (Kd) at FLT3 kinase is at most 0.001 µM; at KIT kinase, 0.001 to 0.01 µM; on CSF-1R kinase, at most 0.01 µM. Moreover, the IC50 in the assay with MV4-11 cells is at most 0.001 µM. For the same molecule, the “Kinase specificty: S(10)-386 panel” value in assay [1] is listed as “B (0.1<B≦0.2 nM)”.

As to `CC1(c2cc(NC(=O)Cc3ccc(-c4ccc(N)nc4F)cc3)no2)CC1` [Example 134, 2-(4-(6-amino-2-fluoropyridin-3-yl)phenyl)-N-(5-(1-methylcyclopropyl)isoxazol-3-yl)acetamide], the Kd on FLT3 kinase was at most 0.001 µM; on KIT kinase it was at most 0.001 µM; at CSF-1R kinase it was at most 0.01 µM. For the same molecule, in the assay on MV4-11 cells, the IC50 was 0.001 to 0.01 µM. Further, the “Kinase specificty: S(10)-386 panel” value in assay [1] is listed as “A (A≦0.1)”.

Turning to `CC1(c2cc(NC(=O)Cc3ccc(-c4cnc(N)c(C(F)(F)F)c4)cc3)no2)COC1.CS(=O)(=O)O` [Example 135, 5-(4-(2-((5-(3-methyloxetan-3-yl)isoxazol-3-yl)amino)-2-oxoethyl)phenyl)-3-(trifluoromethyl)pyridin-2-aminium methanesulfonate], the Kd was at most 0.001 µM at FLT3 kinase, 0.001 to 0.01 µM at KIT kinase and at most 0.01 µM at CSF-1R kinase. This molecule also showed an IC50 in the assay with MV4-11 cells of 0.001 to 0.01 µM. Also, the “Kinase specificty: S(10)-386 panel” value in assay [1] is given as “B (0.1<B≦0.2 nM)”.

`COc1cc(-c2ccc(CC(=O)Nc3cc(C(C)(C)C)on3)cc2)cnc1N.CS(=O)(=O)O` [Example 136, 5-(4-(2-(5-tert-butylisoxazol-3-ylamino)-2-oxoethyl)phenyl)-3-methoxypyridin-2-aminium methanesulfonate]: the values for the equilibrium dissociation constant (Kd) at FLT3 kinase, on KIT kinase and at CSF-1R kinase were at most 0.001 µM, 0.001 to 0.01 µM and at most 0.01 µM, respectively. For the same molecule, in the assay with MV4-11 cells, the IC50 is at most 0.001 µM. Further, the “Kinase specificty: S(10)-386 panel” value in assay [1] is on record as “B (0.1<B≦0.2 nM)”.

For the molecule `CS(=O)(=O)O.Nc1ccc(-c2ccc(CC(=O)Nc3cc(C4(C(F)(F)F)CC4)on3)cc2)c(F)n1` [Example 137, 6-fluoro-5-(4-(2-oxo-2-(5-(1-(trifluoromethyl)cyclopropyl)isoxazol-3-ylamino)ethyl)phenyl)pyridin-2-aminium methanesulfonate], the dissociation constant Kd on FLT3 kinase was at most 0.001 µM; at KIT kinase it was 0.001 to 0.01 µM; on CSF-1R kinase, 0.01 to 0.1 µM. This molecule also showed a half-maximal inhibitory concentration (IC50) with MV4-11 cells of at most 0.001 µM. For the same molecule, in assay [1], the “Kinase specificty: S(10)-386 panel” value is on record as “A (A≦0.1)”.

Take `CC1(c2cc(NC(=O)Cc3ccc(-c4cnc(N)c(F)c4)cc3)no2)CC1.CS(=O)(=O)O` [Example 138, 3-fluoro-5-(4-(2-(5-(1-methylcyclopropyl)isoxazol-3-ylamino)-2-oxoethyl)phenyl)pyridin-2-aminium methanesulfonate]: the Kd is at most 0.001 µM at FLT3 kinase, at most 0.001 µM on KIT kinase and at most 0.01 µM on CSF-1R kinase. Besides, in the assay with MV4-11 cells, the concentration for half-maximal inhibition (IC50) is at most 0.001 µM. For the same molecule, the “Kinase specificty: S(10)-386 panel” value in assay [1] is recorded as “B (0.1<B≦0.2 nM)”.

As to `CS(=O)(=O)O.Nc1ccc(-c2ccc(CC(=O)Nc3cc(C4(C(F)(F)F)CC4)on3)c(F)c2)cn1` [Example 139, 5-(3-fluoro-4-(2-oxo-2-(5-(1-(trifluoromethyl)cyclopropyl)isoxazol-3-ylamino)ethyl)phenyl)pyridin-2-aminium methanesulfonate], the figures for the Kd on FLT3 kinase, at KIT kinase and on CSF-1R kinase were at most 0.001 µM, 0.001 to 0.01 µM and at most 0.01 µM, respectively. In the assay with MV4-11 cells, this molecule had a half-maximal inhibitory concentration (IC50) of at most 0.001 µM. In addition, the “Kinase specificty: S(10)-386 panel” value in assay [1] is “B (0.1<B≦0.2 nM)”.

For `CC1(c2cc(NC(=O)Cc3ccc(-c4ccc(N)nc4F)cc3)no2)COC1` [Example 140, 2-(4-(6-amino-2-fluoropyridin-3-yl)phenyl)-N-(5-(3-methyloxetan-3-yl)isoxazol-3-yl)acetamide], the figures for the Kd at FLT3 kinase, on KIT kinase and on CSF-1R kinase were at most 0.001 µM, 0.001 to 0.01 µM and at most 0.01 µM, respectively. In the assay with MV4-11 cells, the IC50 lay within 0.01 to 0.1 µM. For the same molecule, in assay [1], the “Kinase specificty: S(10)-386 panel” value was “A (A≦0.1)”.

`CC(C)(C)c1cc(NC(=O)Cc2ccc(-c3cnc4[nH]c(=O)oc4c3)cc2)no1` [Example 141, N-(5-tert-butylisoxazol-3-yl)-2-(4-(2-oxo-2,3-dihydrooxazolo[4,5-b]pyridin-6-yl)phenyl)acetamide]: the dissociation constant Kd at FLT3 kinase was in the range of 0.001 to 0.01 µM; on KIT kinase, 0.001 to 0.01 µM; at CSF-1R kinase it was 0.01 to 0.1 µM. The molecule also returned a half-maximal inhibitory concentration (IC50) in the assay on MV4-11 cells of 0.001 to 0.01 µM. The “Kinase specificty: S(10)-386 panel” value in assay [1] is given as “B (0.1<B≦0.2 nM)”.

For `CC(C)(c1cc(NC(=O)Cc2ccc(-c3ccc(N)nc3F)cc2)no1)C(F)(F)F.CS(=O)(=O)O` [Example 142, 6-fluoro-5-(4-(2-oxo-2-(5-(1,1,1-trifluoro-2-methylpropan-2-yl)isoxazol-3-ylamino)ethyl)phenyl)pyridin-2-aminium methanesulfonate], the Kd is at most 0.001 µM at FLT3 kinase, 0.001 to 0.01 µM on KIT kinase and at most 0.01 µM at CSF-1R kinase. Further, the concentration for half-maximal inhibition (IC50) with MV4-11 cells is at most 0.001 µM. Also, the “Kinase specificty: S(10)-386 panel” value in assay [1] is given as “A (A≦0.1)”.

Regarding `CS(=O)(=O)O.Nc1ccc(-c2ccc(CC(=O)Nc3cc(C4CCC4)no3)cc2)cn1` [Example 143, 5-(4-(2-((3-cyclobutylisoxazol-5-yl)amino)-2-oxoethyl)phenyl)pyridin-2-aminium methanesulfonate], the dissociation constant Kd on FLT3 kinase was at most 0.001 µM; on KIT kinase, at most 0.001 µM; at CSF-1R kinase, at most 0.01 µM. In the assay with MV4-11 cells, this molecule came in with an IC50 of 0.001 to 0.01 µM. Also, the “Kinase specificty: S(10)-386 panel” value in assay [1] is recorded as “A (A≦0.1)”.
